Tests used:
[1] = target: T1, recombinant human HDAC8 enzyme (Homo sapiens, UniProt Q9BY41); experiment: HDAC8 enzyme inhibition assay; type: biochemical; conditions: mean ± SEM of three experiments
T1 construct: purchased Enzo Life Science, NY, USA BML-AK518
T1 sequence (Q9BY41 1-377): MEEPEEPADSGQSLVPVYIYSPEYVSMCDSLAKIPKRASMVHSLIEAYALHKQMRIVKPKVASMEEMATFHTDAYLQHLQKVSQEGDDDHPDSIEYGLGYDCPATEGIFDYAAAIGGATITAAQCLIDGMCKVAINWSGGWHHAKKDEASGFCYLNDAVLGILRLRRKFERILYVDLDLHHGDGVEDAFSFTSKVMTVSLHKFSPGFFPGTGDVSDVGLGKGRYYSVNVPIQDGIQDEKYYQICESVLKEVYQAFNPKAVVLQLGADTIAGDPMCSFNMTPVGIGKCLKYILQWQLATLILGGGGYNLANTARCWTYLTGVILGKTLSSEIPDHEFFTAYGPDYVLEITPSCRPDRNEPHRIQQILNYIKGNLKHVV
Method: The enzymatic reaction was conducted as per Enzo Life Science, NY, USA (BML-AK518) kit protocol. In brief, 10 µl of different concentration of test compounds were added to a 40 µl reaction mixture containing the HDAC assay buffer, HDAC8 substrate, and recombinant human HDAC8 enzyme. The reactions were incubated for 20 min at 30°C. Then, 50 µl of the HDAC developer was added in each well, and the plate was incubated at room temperature for an additional 45 min. Fluorescence intensity was measured at an excitation of 360 nm and an emission of 460 nm using a fluorescence microplate reader (FLx800, BioTek Instruments Inc., Winooski, VT, USA).

HCT116 cells = experiment: Annexin V staining; type: cell-based, human; conditions: SAHA 5 µM, quercetin 100 µM, QMJ-2 100 µM, QMJ-5 50 µM, normal control 21.30%
Method: Mechanism of cell death induced by synthesized analogues was determined using annexin V staining. In brief, as per annexin V flow cytometry kit protocol (#MCH100105), 1 × 10^6 cells were seeded in a cell culture dish and after overnight adherence, were incubated with test compounds. Cells were then detached by trypsinization, centrifuged, and washed with PBS. Cell suspension (100 µl) was mixed with Muse annexin V reagent (100 µl) and incubated for 20 min at room temperature. The stained cells were quantitatively analyzed for live, early, and late apoptosis using Muse cell analyzer (#0500-3115 Merck Millipore).

[2] = system: caspase 3/7 in HCT116 cells; experiment: Caspase 3/7 activation assay; type: cell-based, human; conditions: SAHA 5 µM, quercetin 100 µM, QMJ-2 100 µM, QMJ-5 50 µM; for percentage of apoptotic cells (Apoptotic/Dead, caspase 3/7): normal control 24.60%; for percentage of live cells (caspase 3/7): normal control 69.40%
Method: The downstream signaling pathway of apoptosis was determined using the caspase 3/7 activation assay. In brief, as per the caspase 3/7 activation kit protocol (#MCH100108), 1 × 10^6 cells were seeded in the cell culture dish and after overnight adherence, were incubated with the test compounds. The cells were detached by trypsinization, centrifuged, and washed with PBS. Cell suspension (50 µl) was mixed with the caspase 3/7 antibody reagent (5 µl) and incubated at 37°C temperature for 30 min. 7-AAD (7-amino-actinomycin D) working solution (150 µl) was added, and stained cells were then analyzed in Muse Cell Analyzer (#0500-3115 Merck Millipore).

[3] = target: T2, recombinant human HDAC6 enzyme (Homo sapiens, UniProt Q9UBN7); experiment: HDAC6 enzyme inhibition assay; type: biochemical; conditions: mean ± SEM of three experiments
T2 construct: purchased Enzo Life Sciences, Inc. USA
T2 sequence (Q9UBN7 1-1215): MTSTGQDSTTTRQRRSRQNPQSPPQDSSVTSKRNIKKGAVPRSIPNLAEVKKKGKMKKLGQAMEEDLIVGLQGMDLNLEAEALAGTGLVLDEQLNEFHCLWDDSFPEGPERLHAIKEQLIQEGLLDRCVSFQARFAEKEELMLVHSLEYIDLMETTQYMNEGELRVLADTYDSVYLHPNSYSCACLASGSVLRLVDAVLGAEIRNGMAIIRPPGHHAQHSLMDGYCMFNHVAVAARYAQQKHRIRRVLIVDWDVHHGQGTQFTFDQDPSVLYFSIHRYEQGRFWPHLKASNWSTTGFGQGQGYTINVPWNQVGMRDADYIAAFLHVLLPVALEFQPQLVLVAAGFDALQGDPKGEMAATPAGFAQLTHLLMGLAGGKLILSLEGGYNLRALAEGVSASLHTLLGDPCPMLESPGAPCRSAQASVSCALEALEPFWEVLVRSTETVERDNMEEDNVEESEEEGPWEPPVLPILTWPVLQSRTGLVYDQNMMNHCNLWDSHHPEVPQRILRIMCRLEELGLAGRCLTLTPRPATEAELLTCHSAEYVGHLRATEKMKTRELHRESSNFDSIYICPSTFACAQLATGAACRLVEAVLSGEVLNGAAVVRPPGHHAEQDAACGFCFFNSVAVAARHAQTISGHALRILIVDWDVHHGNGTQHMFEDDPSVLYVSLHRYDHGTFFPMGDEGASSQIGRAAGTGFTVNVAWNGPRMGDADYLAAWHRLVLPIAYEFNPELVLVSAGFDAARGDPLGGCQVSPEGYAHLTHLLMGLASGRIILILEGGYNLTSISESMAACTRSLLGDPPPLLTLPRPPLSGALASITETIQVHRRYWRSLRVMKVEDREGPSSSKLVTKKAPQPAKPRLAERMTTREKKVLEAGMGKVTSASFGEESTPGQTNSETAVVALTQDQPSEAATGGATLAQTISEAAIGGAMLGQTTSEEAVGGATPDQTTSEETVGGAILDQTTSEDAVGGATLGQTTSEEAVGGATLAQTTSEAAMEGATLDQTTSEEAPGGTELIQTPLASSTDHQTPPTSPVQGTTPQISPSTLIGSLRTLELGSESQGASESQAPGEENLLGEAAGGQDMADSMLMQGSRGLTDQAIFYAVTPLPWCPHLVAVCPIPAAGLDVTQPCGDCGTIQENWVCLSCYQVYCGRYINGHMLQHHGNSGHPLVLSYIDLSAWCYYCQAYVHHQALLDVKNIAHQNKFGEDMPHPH
Method: The HDAC1 and 6 assays were carried out with few modifications from the previously described method. In brief, 10 µl of different concentration of test compounds was added to 40 µl of reaction mixture containing HDAC assay buffer, HDAC substrate, and recombinant human HDAC1 and 6 enzymes. The reactions were incubated for 30 min at 37°C. Then, 50 µl of trypsin stop solution was added in each well, and the plate was incubated at room temperature for an additional 20 min. Fluorescence intensity was measured at an excitation of 360 nm and an emission of 460 nm using a fluorescence microplate reader (FLx800, BioTek Instruments Inc. Winooski, VT, USA).

| Structure (SMILES) | IC50 [1] | percentage of cells undergoing late apoptosis (Late Apop./Dead, annexin V) (HCT116 cells) | percentage of apoptotic cells (Apoptotic/Dead, caspase 3/7) [2] | IC50 [3] | percentage of live cells (caspase 3/7) [2] |
| --- | --- | --- | --- | --- | --- |
| O=c1c(O)c(-c2ccc(O)c(O)c2)oc2cc(O)cc(O)c12 [Quercetin, quercetin, reference compound] | 15.4 ± 1.53 µM | 35.80% | 59.65% | 43.4 ± 2.17 µM | – |
| Cc1ccc(-c2oc3ccccc3c(=O)c2O)cc1 [QMJ-2, 3-Hydroxy-2-(4-methylphenyl)-4H-1-benzopyran-4-one] | 36 ± 4.17 µM | 35.20% | 55.70% | 165 ± 11.1 µM | 37.40% |
| Cc1ccc(-c2oc3cc(C)ccc3c(=O)c2O)cc1 [QMJ-5, 3-Hydroxy-7-methyl-2-(4-methylphenyl)-4H-1-benzopyran-4-one] | 24 ± 2.8 µM | 38.65% | 83.55% | 163 ± 7.05 µM | 8.05% |

— publication PMC6327263, “Evaluation of Novel 3-Hydroxyflavone Analogues as HDAC Inhibitors against Colorectal Cancer” (Advances in Pharmacological Sciences, 2018)
